Reference: publication PMC10318822, “Phase 1 dose-escalation study to evaluate the safety, tolerability, pharmacokinetics, and anti-tumor activity of FCN-159 in adults with neurofibromatosis type 1-related unresectable plexiform neurofibromas” (BMC Medicine, 2023)

Tested on: adult patients with NF1-related PN
Experiment: Phase I dose-escalation: DLT, MTD, RP2D and drug-related TEAEs (CTCAE v5.0)
Protocol: This is a multicenter, open-label, single-arm, non-randomized, phase I dose-escalation trial to evaluate the safety, tolerability, pharmacokinetic (PK), and anti-tumor activity of orally administered FCN-159 in adult patients with NF1 (NCT04954001). Phase I commenced with dose escalation in adult patients following a standard 3 + 3 design (Supplementary Table S1) to determine the maximum tolerated dose (MTD) of FCN-159 administered daily under fasting conditions (defined as no food or drink 1 h before and 2 h after each dose) in 28-day cycles. Study drug was dispensed at the study site and patient adherence was monitored by the records of drug dispensation and return. Patients were on treatment until PD, death, patient's voluntary withdrawal from study treatment, or study termination. The study was followed for 2 years after the last patient in. The starting dose was 4 mg, escalating in cohorts of at least three evaluable patients at 6 mg, 8 mg, and 12 mg until the MTD was determined. The starting dose in this study was determined based on available data from a phase 1a, first-in-human study of FCN-159 in patients with advanced NRAS ^mut+ melanoma at the time of study design. […] Dose expansion at a likely RP2D level enrolled approximately six patients. The highest dose level with a dose-limiting toxicity (DLT) incidence rate ≤ 33% (0/3 or 1/6 patients) was to be considered the MTD. If patients experienced grade ≥ 3 and/or unacceptable toxic events that were considered as at least possibly related to the study treatment, the study treatment was discontinued and supportive treatment was given in accordance with local treatment routines. If the toxicity returned to grade ≤ 2 within 28 days after the occurrence, and there was no progression on patients’ conditions or the investigator believed that patients could benefit from the study treatment, the original dose could be maintained or reduced after discussion with medical monitor. After completion of the dose escalation part of the study, PK, efficacy, safety, and tolerability data were analyzed to select the RP2D.
Primary endpoints of the study were the DLT incidence rate, MTD, and RP2D. Secondary endpoints included other safety assessments, imaging tumor response (complete response [CR], PR, stable disease [SD], or progressive disease [PD]), and PK parameters of FCN-159. Adverse events were graded per CTCAE v5.0.
All patients underwent a complete medical history, physical examination, Eastern Cooperative Oncology Group (ECOG) assessment, and laboratory analysis of test results. Drug-related TEAEs, serious adverse events (SAEs), TEAEs of grade ≥ 3 toxicity, and TEAEs leading to drug discontinuation were reviewed on an ongoing basis. Efficacy was assessed by radiologic scans and clinical assessment. Tumor assessments per Response Evaluation in Neurofibromatosis Schwannomatosis criteria were performed by investigators using MRI volumetric analysis every 4 cycles within the first 2 years (± 7 days) and every 6 cycles after 2 years (± 14 days) until PD, death, patient's voluntary withdrawal from study treatment, or study termination. MRI sequences of […], T1- and T2-weighted sequences were chosen and the software of Extended Brilliance Workspace, SIGNA Premier and uExceed were used for MRI volumetric analysis. The same software was used for all tumor assessments at baseline and subsequent assessed timepoints of the same patient. Pain was assessed by an 11-point numerical rating scale (NRS-11).
The sample size for the dose-escalation study was estimated to be 24 based on the 3 + 3 method. Safety was analyzed in patients who received at least one dose of FCN-159 and had at least one safety assessment. DLT was assessed in the DLT analysis set, defined as patients who were enrolled in the dose-escalation study and met the DLT evaluation criteria.

Cn1c(=O)c(F)c(Nc2ccc(I)cc2F)c2c(=O)n(C3CC3)nc(-c3cccc(NS(=O)(=O)C4CC4)c3)c21 [FCN-159]
Drug-related TEAE: Urticaria (12 mg (N = 4)): 1 (25.0) n (%) | Drug-related TEAE: Vision blurred (12 mg (N = 4)): 0 n (%) | Drug-related TEAE: Visual acuity reduced (12 mg (N = 4)): 0 n (%) | Drug-related TEAE: pH urine decreased (12 mg (N = 4)): 0 n (%) | Drug-related TEAE: pH urine increased (12 mg (N = 4)): 0 n (%) | Subjects with any drug-related TEAE (12 mg (N = 4)): 4 (100) n (%) | Patients with DLT (grade 3 folliculitis) (12 mg, 3 of 3 patients): 100% | Drug-related TEAE: Abdominal pain (Total (N = 19)): 1 (5.3) n (%) | Drug-related TEAE: Acne (Total (N = 19)): 1 (5.3) n (%) | Drug-related TEAE: Acne pustular (Total (N = 19)): 1 (5.3) n (%) | Drug-related TEAE: Alanine aminotransferase increased (Total (N = 19)): 2 (10.5) n (%) | Drug-related TEAE: Albumin globulin ratio decreased (Total (N = 19)): 1 (5.3) n (%) | Drug-related TEAE: Alopecia (Total (N = 19)): 5 (26.3) n (%) | Drug-related TEAE: Amylase increased (Total (N = 19)): 1 (5.3) n (%) | Drug-related TEAE: Anemia (Total (N = 19)): 1 (5.3) n (%) | Drug-related TEAE: Aortic dilatation (Total (N = 19)): 1 (5.3) n (%) | Drug-related TEAE: Aspartate aminotransferase increased (Total (N = 19)): 2 (10.5) n (%) | Drug-related TEAE: Asthenia (Total (N = 19)): 1 (5.3) n (%) | Drug-related TEAE: Beta globulin decreased (Total (N = 19)): 1 (5.3) n (%) | Drug-related TEAE: Beta globulin increased (Total (N = 19)): 2 (10.5) n (%) | Drug-related TEAE: Blood alkaline phosphatase increased (Total (N = 19)): 6 (31.6) n (%) | Drug-related TEAE: Blood bilirubin increased (Total (N = 19)): 5 (26.3) n (%) | Drug-related TEAE: Blood creatine phosphokinase increased (Total (N = 19)): 3 (15.8) n (%) | Drug-related TEAE: Blood fibrinogen increased (Total (N = 19)): 4 (21.1) n (%) | Drug-related TEAE: Blood lactate dehydrogenase increased (Total (N = 19)): 4 (21.1) n (%) | Drug-related TEAE: Blood pressure increased (Total (N = 19)): 1 (5.3) n (%) | Drug-related TEAE: Blood urea increased (Total (N = 19)): 4 (21.1) n (%) | Drug-related TEAE: Blood uric acid increased (Total (N = 19)): 2 (10.5) n (%) | Drug-related TEAE: Breath odor (Total (N = 19)): 3 (15.8) n (%) | Drug-related TEAE: Capillary disorder (Total (N = 19)): 1 (5.3) n (%) | Drug-related TEAE: Constipation (Total (N = 19)): 3 (15.8) n (%) | Drug-related TEAE: Decreased appetite (Total (N = 19)): 1 (5.3) n (%) | Drug-related TEAE: Dermatitis acneiform (Total (N = 19)): 1 (5.3) n (%) | Drug-related TEAE: Diarrhea (Total (N = 19)): 1 (5.3) n (%) | Drug-related TEAE: Drug eruption (Total (N = 19)): 5 (26.3) n (%) | Drug-related TEAE: Dyslipidemia (Total (N = 19)): 2 (10.5) n (%) | Drug-related TEAE: Ejection fraction decreased (Total (N = 19)): 1 (5.3) n (%) | Drug-related TEAE: Electrocardiogram QT prolonged (Total (N = 19)): 1 (5.3) n (%) | Drug-related TEAE: Electrocardiogram abnormal (Total (N = 19)): 2 (10.5) n (%) | Drug-related TEAE: Epistaxis (Total (N = 19)): 2 (10.5) n (%) | Drug-related TEAE: Folliculitis (Total (N = 19)): 9 (47.4) n (%) | Drug-related TEAE: Functional gastrointestinal disorder (Total (N = 19)): 1 (5.3) n (%) | Drug-related TEAE: Gamma-glutamyltransferase increased (Total (N = 19)): 1 (5.3) n (%) | Drug-related TEAE: Gingival pain (Total (N = 19)): 1 (5.3) n (%) | Drug-related TEAE: Hyperlipidemia (Total (N = 19)): 1 (5.3) n (%) | Drug-related TEAE: Hypertension (Total (N = 19)): 1 (5.3) n (%) | Drug-related TEAE: Hypoalbuminemia (Total (N = 19)): 1 (5.3) n (%) | Drug-related TEAE: Hypocalcemia (Total (N = 19)): 2 (10.5) n (%) | Drug-related TEAE: Hypophosphatemia (Total (N = 19)): 1 (5.3) n (%) | Drug-related TEAE: Hypoproteinemia (Total (N = 19)): 1 (5.3) n (%) | Drug-related TEAE: Immunoglobulins increased (Total (N = 19)): 4 (21.1) n (%) | Drug-related TEAE: Impetigo (Total (N = 19)): 1 (5.3) n (%) | Drug-related TEAE: Left atrial enlargement (Total (N = 19)): 1 (5.3) n (%) | Drug-related TEAE: Lipoprotein abnormal (Total (N = 19)): 1 (5.3) n (%) | Drug-related TEAE: Malaise (Total (N = 19)): 1 (5.3) n (%) | Drug-related TEAE: Menstrual disorder (Total (N = 19)): 2 (10.5) n (%) | Drug-related TEAE: Mitral valve incompetence (Total (N = 19)): 4 (21.1) n (%) | Drug-related TEAE: Mouth ulceration (Total (N = 19)): 4 (21.1) n (%) | Drug-related TEAE: Muscular weakness (Total (N = 19)): 1 (5.3) n (%) | Drug-related TEAE: Oedema peripheral (Total (N = 19)): 1 (5.3) n (%) | Drug-related TEAE: Pain in extremity (Total (N = 19)): 1 (5.3) n (%) | Drug-related TEAE: Paronychia (Total (N = 19)): 6 (31.6) n (%) | Drug-related TEAE: Prealbumin decreased (Total (N = 19)): 1 (5.3) n (%) | Drug-related TEAE: Protein urine present (Total (N = 19)): 5 (26.3) n (%) | Drug-related TEAE: Pruritus (Total (N = 19)): 1 (5.3) n (%) | Drug-related TEAE: QRS axis abnormal (Total (N = 19)): 4 (21.1) n (%) | Drug-related TEAE: Rash (Total (N = 19)): 3 (15.8) n (%) | Drug-related TEAE: Sinus arrhythmia (Total (N = 19)): 1 (5.3) n (%) | Drug-related TEAE: Sinus bradycardia (Total (N = 19)): 1 (5.3) n (%) | Drug-related TEAE: Sinusitis (Total (N = 19)): 1 (5.3) n (%) | Drug-related TEAE: Skin exfoliation (Total (N = 19)): 1 (5.3) n (%) | Drug-related TEAE: Specific gravity urine increased (Total (N = 19)): 5 (26.3) n (%) | Drug-related TEAE: Stomatitis (Total (N = 19)): 7 (36.8) n (%) | Drug-related TEAE: Supraventricular extrasystoles (Total (N = 19)): 1 (5.3) n (%) | Drug-related TEAE: Total bile acids increased (Total (N = 19)): 3 (15.8) n (%) | Drug-related TEAE: Tricuspid valve incompetence (Total (N = 19)): 3 (15.8) n (%) | Drug-related TEAE: Urinary occult blood positive (Total (N = 19)): 3 (15.8) n (%) | Drug-related TEAE: Urinary sediment present (Total (N = 19)): 1 (5.3) n (%) | Drug-related TEAE: Urinary tract infection (Total (N = 19)): 1 (5.3) n (%) | Drug-related TEAE: Urine ketone body present (Total (N = 19)): 2 (10.5) n (%) | Drug-related TEAE: Urobilinogen urine increased (Total (N = 19)): 5 (26.3) n (%) | Drug-related TEAE: Urticaria (Total (N = 19)): 1 (5.3) n (%) | Drug-related TEAE: Vision blurred (Total (N = 19)): 1 (5.3) n (%) | Drug-related TEAE: Visual acuity reduced (Total (N = 19)): 1 (5.3) n (%) | Drug-related TEAE: pH urine decreased (Total (N = 19)): 3 (15.8) n (%) | Drug-related TEAE: pH urine increased (Total (N = 19)): 2 (10.5) n (%) | Subjects with any drug-related TEAE (Total (N = 19)): 19 (100) n (%) | Patients with grade 3 drug-related folliculitis (all dose levels): five | Patients with grade 3 drug-related paronychia (all dose levels): four | Patients with FCN-159-related TEAEs (all dose levels, n = 19): 100% | Patients with grade 3 study-drug-related TEAEs (all dose levels, nine of 19 patients): 47.4% | Blurred vision (all patients, n = 1/19): 5.3% | Reduced visual acuity (all patients, n = 1/19): 5.3% | Drug-related TEAE mouth ulceration (all patients, n = 4/19): 21.1% | Drug-related TEAE increased blood alkaline phosphatase (all patients, n = 6/19): 31.6% | Drug-related TEAE paronychia (all patients, n = 6/19): 31.6% | Drug-related TEAE stomatitis (all patients, n = 7/19): 36.8% | Drug-related TEAE folliculitis (all patients, n = 9/19): 47.4% | Drug-related gastrointestinal disorders (all patients, twelve patients): 63.2% | Patients with eye disorders (all patients, two patients): 10.5% | Recommended phase II dose (RP2D) (daily): 8 mg | Maximum tolerated dose (MTD) (daily, 28-day cycles, fasting): 8 mg | Deaths during the study (in vivo): No patients died | Dose reduction (mainly due to grade 3 paronychia and folliculitis): 42.1% | Grade 3 drug-related TEAE in patients receiving doses below the MTD (paronychia, 6 mg dose): Only one | SAE during treatment that led to drug withdrawal (rhegmatogenous retinal detachment, present at baseline, considered unrelated to the study drug): One patient
